# Measurements from patent publication US8324422B2, “Enhydrazone esters for treating asthma, allergy and inflammation” (Kuwait University, priority 2008, dated 2012).
# pIC50: −log10 of the molar value.
# What was measured:
# RBL-2H3 mast cells [1] = test: antigen induced IgE-mediated degranulation (β-hexoseaminidase release) of mast cells (RBL-2H3); assay type: cell-based, rat; conditions: anti-DNP IgE sensitized, DNP-BSA 100 ng/mL, 10 min pre-treatment; read-out: concentration achieving 50% inhibition of β-hexoseaminidase release
# Procedure: The anti-allergic effect was tested on IgE-dependent mast cell degranulation using the rat basophilic leukemia (RBL-2H3) cell line model. The cells were passively sensitized with 0.5 μg/mL anti-DNP monoclonal IgE antibody for 1 hour, and then washed twice to remove unbound antibody. They were then separately pre-treated with CEE-1, CEE-2 or their solvent (DMSO) for 10 minutes before being stimulated with the specific antigen DNP-BSA (100 ng/mL). After 30 minutes of incubation, the amount of granular β-hexoseaminidase released into the supernatant (index of degranulation) was determined photometrically.
# FIG. 3 illustrates the inhibition of antigen induced IgE-mediated degranulation (β-hexoseaminidase release) of mast cells (RBL-2H3) by CEE-1 and CEE-2. Cells were incubated with CEE-1 and CEE-2 for 10 minutes before stimulation. Control uninhibited releases were in the range of 15-26% of total cell content. Results are shown as mean±SD, n=3.
# RBL-2H3 mast cells [2] = system: RBL-2H3 mast cells
# [3] = system: mouse peritoneal macrophages; test: viability of macrophages after overnight incubation; assay type: cell-based
# [4] = system: mouse peritoneal macrophages; test: LPS-stimulated release of TNF-α from mouse peritoneal macrophages; assay type: cell-based; conditions: for pIC50: LPS 1 μg/mL for 18 hours, 30 min pre-treatment, ELISA, read-out: concentration that achieved 50% inhibition of TNF-α release
# Procedure: The antiinflammatory effect of CEE-1 and CEE-2 was tested on LPS-stimulated release of tumor necrotic factor-α (TNF-α) from mouse peritoneal macrophages. Thioglycollate-induced peritoneal macrophages were obtained by peritoneal lavage of Balb c mice. Macrophages purified by adherence to plastic plate were cultured in a supplemented RPMI medium and pre-treated with CEE-1, CEE-2 or their solvent (DMSO) for 30 minutes before being stimulated with LPS (1 μg/mL) for 18 hours. The amount of TNF-α released into the supernatant was determined by ELISA using commercially available kits.
# FIG. 4 illustrates the inhibitory effect of CEE-1 and CEE-2 on the release of TNF-α from LPS-stimulated mouse peritoneal macrophages. Cells were pre-treated with the drugs for 30 minutes before stimulation with LPS (1 μg/mL). The net uninhibited releases were in the range of 130-185 pg/ml. Values are shown as mean±SD, n=3.
# [5] = system: human peripheral blood eosinophils; test: viability of eosinophils at concentrations that abolished EPO release; assay type: cell-based
# Description: In untreated cells, C5a induced the release of 20-30% of the total cellular content of EPO.
# [6] = system: human peripheral blood eosinophils; test: complement C5a-stimulated degranulation (EPO release) of human eosinophils; assay type: cell-based; conditions: for pIC50: C5a (30 nM) + cytochalasin B, 10 min pre-incubation, 30 min at 37° C., read-out: concentration achieving 50% inhibition of EPO release; for effect on EPO release at high concentration: at the concentrations of 300 nM and above
# Procedure: Example 1 involves the testing of the effect of complement C5a-induced degranulation of human blood eosinophils, and IgE-dependent degranulation of mast cells. Human peripheral blood eosinophils were purified to >98% by the immunomagnetic method. Aliquots containing 2.5×10^4 cells were added to each well of a 96-well microplate. The cells were separately pre-incubated for 10 minutes with CEE-1, CEE-2 or the drug solvent (DMSO) and then subsequently stimulated with recombinant human complement C5a (30 nM) in the presence of cytochalasin B (5 μg/mL). The reaction was allowed to proceed for 30 minutes at 37° C. The amount of the granular eosinophil peroxidases (EPO) released into the supernatant (as index of degranulation) was determined by the o-phenylenediamine method. The amount of EPO released was expressed as a percentage of the total cell content.
# Cells were incubated with the each of CEE-1 and CEE-2 for 10 minutes before stimulation. Control uninhibited releases were in the range of 20-30% of total cell content. Results are shown as mean±SD, n=4.
structure (smiles),measurement,setting,value
"CCOC(=O)C1C(=O)C=C(NNc2ccccc2)CC1c1ccccc1 (stereo not shown) [CEE-1, ethyl 4-phenylhydrazinocyclohex-3-en-2-oxo-6-phenyl-1-oate]",pIC50,RBL-2H3 mast cells [1],6.10
same,cellular toxicity (trypan blue exclusion test),RBL-2H3 mast cells [2],no cellular toxicity
same,viability of the cells,[3],no effect on their viability
same,pIC50,[4],7.10
same,effect on TNF-α release at 10 μM,[4],completely abolished the release
same,viability of the cells,[5],did not significantly affect the viability of the cells
same,pIC50,[6],7.35
same,effect on EPO release at high concentration,[6],completely abolished EPO release
"COC(=O)C1C(=O)C=C(NNc2ccccc2)CC1c1ccccc1 (stereo not shown) [CEE-2, methyl 4-phenylhydrazinocyclohex-3-en-2-oxo-6-phenyl-1-oate]",pIC50,RBL-2H3 mast cells [1],5.92
same,cellular toxicity (trypan blue exclusion test),RBL-2H3 mast cells [2],no cellular toxicity
same,viability of the cells,[3],no effect on their viability
same,pIC50,[4],7.09
same,effect on TNF-α release at 10 μM,[4],completely abolished the release
same,viability of the cells,[5],did not significantly affect the viability of the cells
same,pIC50,[6],7.03
same,effect on EPO release at high concentration,[6],completely abolished EPO release
